Results on 31 compounds are retold here after patent publication US8951999B2, “Compounds” (Orexo AB, priority 2009, dated 2015).

For the first test, the target named is T1, recombinant human mPGES-1 (Homo sapiens, UniProt O14684).
T1 sequence (O14684 1-152): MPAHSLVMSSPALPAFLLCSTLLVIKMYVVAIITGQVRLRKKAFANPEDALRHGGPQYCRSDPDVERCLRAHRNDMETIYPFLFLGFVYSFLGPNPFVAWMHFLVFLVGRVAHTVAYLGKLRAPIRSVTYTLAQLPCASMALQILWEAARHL
Kind of test: Assay B: mPGES-1 enzyme assay (modified). Format: biochemical. As to conditions: biological assay B (all other compounds); PGH2 final conc. 2 μM, HTRF; read-out: mPGES-1 inhibitory effect IC50. In a few lines: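 Microsomal recombinant human mPGES-1 preincubated 25 min at room temperature with compound in pH 7.4 phosphate buffer containing 2.5 mmol/L GSH; reaction started with 2 μM PGH2 (final), stopped with FeCl2 after 60 s. PGE2 quantified by HTRF against calibration curve; IC50 by nonlinear regression after background subtraction.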
`Cc1c(CNC(=O)C(C)(C)C)ccc(Cl)c1C(=O)Nc1ccc(OCC(F)F)c(C(=O)Nc2ccc(Br)cc2)c1` [Example 51, N-[4-(2,2-Difluoroethyl)oxy-3-(4-bromophenyl)aminocarbonyl-phenyl]-6-chloro-2-methyl-3-(tert-butylcarbonylamino)methyl-benzamide]: the half-maximal inhibitory concentration (IC50) came to 5 nM.

For `CC(C)(C)C(=O)NCc1ccc(Cl)c(C(=O)Nc2ccc(OCC(F)F)c(C(=O)Nc3ccc(Br)cc3)c2)c1F` [Example 45, N-[4-(2,2-Difluoroethyl)oxy-3-(4-bromophenyl)aminocarbonyl-phenyl]-6-chlor-2-fluor-3-(tert-butylcarbonylamino)methyl-benzamide], the IC50 was 4 nM.

As to `CC(C)(C(=O)NCc1ccc(Cl)c(C(=O)Nc2ccc(OCC(F)F)c(C(=O)NCc3cccc(C(F)(F)F)c3)c2)c1)C(F)(F)F` [Example 101], the half-inhibitory concentration (IC50) is 9 nM. Regarding `CC(C)(C)C(=O)NCc1ccc(Cl)c(C(=O)Nc2cnc(OCC(F)F)c(C(=O)Nc3cc(F)cc(Cl)c3)c2)c1Cl` [Example 75, N-[2-(2,2-Difluoroethoxy)-3-(3-chloro-5-fluorophenyl)aminocarbonyl-pyridin-5-yl]-2,6-dichloro-5-(tert-butylcarbonylamino)methyl-benzamide], the IC50 amounted to 6 nM. As to `CC(C)(C(=O)NCc1ccc(Cl)c(C(=O)Nc2ccc(OCC(F)F)c(C(=O)Nc3ccc(Br)c(Cl)c3)c2)c1)C(F)(F)F` [Example 105], the IC50 came out at 5 nM. On to `COCCOc1ccc(NC(=O)c2cc(CNC(=O)C(C)(C)C)ccc2Cl)cc1C(=O)N[C@H]1CC[C@H](C(F)(F)F)CC1` [Example 71], for which the IC50 stood at 10 nM. In the case of `O=C(Nc1ccc(OC2CCOC2)c(C(=O)N[C@H]2CC[C@H](C(F)(F)F)CC2)c1)c1cc(CNC(=O)C2(C(F)(F)F)CC2)ccc1Cl` (stereo partly shown) [Example 68], the IC50 was found to be 9 nM. Regarding `CC(C)(C(=O)NCc1ccc(Cl)c(C(=O)Nc2ccc(OCC(F)F)c(C(=O)Nc3ccc(Cl)c(C(F)(F)F)c3)c2)c1)C(F)(F)F` [Example 126], the half-maximal inhibitory concentration (IC50) was 4 nM. As for `CC(NC(=O)c1cc(NC(=O)c2cc(CNC(=O)C(C)(C)C(F)(F)F)ccc2Cl)ccc1OCC(F)F)C1CC1` (stereo not shown) [Example 135], the IC50 worked out at 7 nM. Same read-out and setting: the value for `CC(C)(C(=O)NCc1ccc(Cl)c(C(=O)Nc2ccc(OCC(F)F)c(C(=O)Nc3ccc(Cl)c(F)c3)c2)c1)C(F)(F)F` [Example 108] was 5 nM.

Take `CC(C)(C(=O)NCc1ccc(Cl)c(C(=O)Nc2ccc(OCC(F)F)c(C(=O)NCC3(O)CC3)c2)c1)C(F)(F)F` [Example 102]: the half-inhibitory concentration (IC50) is > 100 nM.

With `CC(C)(C)C(=O)NCc1ccc(Cl)c(C(=O)Nc2ccc(OCC(F)F)c(C(=O)Nc3ccc(F)c(Cl)c3)c2)c1F` [Example 46, N-[4-(2,2-Difluoroethyl)oxy-3-(4-fluoro-3-chloro-phenyl)aminocarbonyl-phenyl]-6-chloro-2-fluoro-3-(tert-butylcarbonylamino)methyl-benzamide], the concentration for half-maximal inhibition (IC50) worked out at 5 nM. In the case of `CC(C)(C(=O)NCc1ccc(Cl)c(C(=O)Nc2ccc(OCC(F)F)c(C(=O)Nc3cccc(Cl)c3)c2)c1Cl)C(F)(F)F` [Example 150], the IC50 was found to be 2 nM.

Consider `CC(C)(C(=O)NCc1ccc(Cl)c(C(=O)Nc2ccc(OCC(F)F)c(C(=O)NCCCC(F)(F)F)c2)c1)C(F)(F)F` [Example 121], for which the IC50 was determined as 11 nM.

Turning to `Cc1ccc(Cl)cc1NC(=O)c1cc(NC(=O)c2c(Cl)ccc(CNC(=O)C(C)(C)C(F)(F)F)c2Cl)ccc1OCC(F)F` [Example 153], the IC50 stood at 5 nM.

Take `N#CC1(C(=O)NCc2ccc(Cl)c(C(=O)Nc3ccc(OCC(F)F)c(C(=O)Nc4ccc(Br)cc4)c3)c2)CC1` [Example 173]: the IC50 was 48 nM. On to `CC(C)(C)C(=O)NCc1ccc(C(F)(F)F)c(C(=O)Nc2ccc(OCC(F)F)c(C(=O)Nc3ccc(Br)cc3)c2)c1` [Example 42, N-[4-(2,2-Difluoroethyl)oxy-3-(4-bromophenyl)aminocarbonyl-phenyl]-2-trifluormethyl-5-(tert-butylcarbonylamino)methyl-benzamide], for which the IC50 was 3 nM. On the same count and under the same terms, the value for `CC(C)(C(=O)NCc1ccc(Cl)c(C(=O)Nc2ccc(OCC(F)F)c(C(=O)Nc3cc(F)cc(Cl)c3)c2)c1Cl)C(F)(F)F` [Example 151] was 1 nM; that for `CC(C)(C(=O)NCc1ccc(Cl)c(C(=O)Nc2ccc(OCC(F)F)c(C(=O)NCC3CCCOC3)c2)c1)C(F)(F)F` (stereo not shown) [Example 98] was 43 nM.

In another test the target is T1, recombinant human mPGES-1. The test can be described thus: Assay A: mPGES-1 enzyme assay (HTRF detection of PGE2). Type of test: biochemical. As to conditions: biological assay A (compounds 1-41, 54, 55, 62, 73); PGE2 formation from PGH2, HTRF; read-out: mPGES-1 inhibitory effect IC50. An excerpt:
Assay A: mPGES-1 Enzyme Assay
The basis of the assay used is to measure the inhibition of microsomal prostaglandin E2 synthase-1 (mPGES-1) dependent prostaglandin (PG) E2 formation from PGH2 by different compounds. Thus, the formation of PGE2 is used as signal and a lowering of this signal can be interpreted as inhibition of mPGES-1. Similar assays to measure inhibition of mPGES-1 have previously been described in the literature.
• Glutathione (Sigma, G-4251) • Freeze culture in Rosetta E coli expression strain. • LB growth media with Ampillicillin (Amp) final concentration in culture 50 μg/mL • Chloroamphenicol stock 34 mg/mL (chloro) final concentration in culture 34 μg/mL • Sterile growth flasks for 500 mL-1 liter cultures • 0.1 M KPi buffer pH 7.4 • 9.25% HCl • PGH2 (0.25 mM) • Fe (II) Cl2 tetrahydrate, 99% (Sigma, 220229) • 384-well plate with compounds • 96-well plate, polypropylene (Thermo fast 96 skirted VWR) • 384-well plate polypropylene PCR plate (Greiner 785201) • Greiner 384-well plate pp (In vitro cat. no. 781280) • Adhesive sealing film for 96-well plates (Sigma-Aldrich) • Aluminium foil (PCR foil, 310-0030-127-471 from Labora) • PBS (GIBCO 14040) • Prostaglandin E2 Assay (Cisbio, cat. no. 62P2APEC) • Biomek FX robot (Beckman Coulter) • Biomek NX robot (Beckman Coulter) • Multidrop; micro or combi (ThermoLabsystems) • Plate reader: Safire2 (Tecan)
Microsomes from Rosetta E. coli bacteria expressing recombinant human mPGES-1 can be derived as described below:
Inoculate 5 mL LB with Amp and Chloro with bacteria from freeze culture. Incubate over night at 37° C. with 200 rpm. Thereafter, inoculate 500-800 mL LB containing Amp and Chloro with the 5 mL on culture and grow to OD640 of 0.6-0.8. Chill the culture to +4° C. before induction. Induce the culture with IPTG at a final concentration of 400 μM. Express the protein at room temp 18-23° C. with 200 rpm shaking over night.
The following steps can be performed on the following day: • 1. Spin down the cells in 250 mL centrifuge flasks for 15 min at 7000 rpm • 2. Dissolve the pellet from 250 mL culture in 12.5 mL homogenization buffer • 3. Disintegrate the cells by sonication, 4×10 seconds at 35% amplitude • 4. Add 2.5 mL MgCl2 (100 mM) and DNase 12.5 μL (0.8 mg/mL) and incubate on ice for 30 min • 5. Spin down the bacteria debris and save the supernatant, 7000 rpm for 15 min • 6. Isolate the protein containing membranes in the supernatant by ultracentrifugation 45000×g for 1 hour. • 7. Discard the supernatant and dissolve the pellet in 20 mM KPi buffer and aliquot the enzyme and store aliquots at −80° C.
Before each experiment is performed an aliquot of the enzyme is thawed and it can then be dissolved in 0.1 M KPi pH 7.4 buffer containing 2.5 mM GSH. 50 μL of this enzyme solution is subsequently dispensed in a 384-well plate at room temperature. 0.5 μL of the inhibitor dissolved in DMSO is thereafter added to each well and incubated for 25 minutes at room temperature. Subsequently, 2 μL of PGH2 dissolved in an appropriate solvent is added to each well and after one minute at room temperature, the acidified stop solution containing FeCl2 is added. 4 μL of the total volume is transferred to a separate plate and diluted 750-fold in two separate steps before quantification of PGE2.
In order to quantitate the amount of PGE2 that has been formed, a homogenous time resolved fluorescent (HTRF) detection of PGE2 can be performed by the use of a commercially available kit from CisBio essentially according to the manufacturer's protocol. […]
(In TR-FRET formats the signal depends on donor and acceptor labels being close together.)
With `COc1ccc(NC(=O)c2cc(CNC(=O)C(C)(C)C(F)(F)F)ccc2Cl)cc1C(=O)Nc1ccc(Br)cc1` [Example 9, N-[4-Methoxy-3-(4-bromophenyl)aminocarbonyl-phenyl]-2-chloro-5-(2,2,2-trifluoro-1,1-dimethyl-ethyl)carbonylaminomethyl-benzamide], the half-inhibitory concentration (IC50) was determined as 2 nM. Turning to `COc1ccc(NC(=O)c2cc(CNC(=O)C(C)(F)F)ccc2Cl)cc1C(=O)Nc1ccc(Br)cc1` [Example 30], the IC50 is 1 nM. Turning to `COc1ccc(NC(=O)c2cc(CNC(=O)C3(C)CCCCC3)ccc2Cl)cc1C(=O)Nc1ccc(Br)cc1` [Example 27], the IC50 worked out at 2 nM.

Take `COc1ccc(NC(=O)c2cc(CNC(=O)c3c(F)cccc3Cl)ccc2Cl)cc1C(=O)Nc1ccc(Br)cc1` [Example 25]: the concentration for half-maximal inhibition (IC50) was 1 nM. On to `COc1ccc(NC(=O)c2cc(CNC(=O)C3(C(F)(F)F)CCCC3)ccc2Cl)cc1C(=O)Nc1ccc(Br)cc1` [Example 22], for which the IC50 was found to be 2 nM. On the same count and under the same terms, under `COc1ccc(NC(=O)c2cc(CNC(=O)C(C)(C)C)ccc2Cl)cc1C(=O)NC1CC1` [Example 35] stands ~500 nM.

Regarding `COc1ccc(NC(=O)c2cc(CNC(=O)C3CCCCC3C)ccc2Cl)cc1C(=O)Nc1ccc(Br)cc1` (stereo not shown) [Example 29], the half-inhibitory concentration (IC50) came out at 2 nM. As to `CC(C)(C)C(=O)NCc1ccc(Cl)c(C(=O)Nc2cc(F)c(F)c(C(=O)Nc3ccc(Br)cc3)c2)c1` [Example 54, N-[3,4-Difluoro-5-(4-bromophenyl)aminocarbonyl-phenyl]-2-chloro-5-(tert-butylcarbonylamino)methyl-benzamide], the IC50 came to 9 nM. On to `COc1ccc(NC(=O)c2cc(CNC(=O)C(C)C(F)(F)F)ccc2Cl)cc1C(=O)Nc1ccc(Br)cc1` (stereo not shown) [Example 32], for which the IC50 came out at 2 nM. Turning to `COc1ccc(NC(=O)c2cc(CNC(=O)C(C)(C)C)ccc2Cl)cc1C(=O)NCc1ccccc1C(F)(F)F` [Example 16], the concentration for half-maximal inhibition (IC50) worked out at 14 nM. Still for that read-out and setting: the value for `CC(C)(C)C(=O)NCc1ccc(Cl)c(C(=O)Nc2ccc(OCC(F)F)c(C(=O)Nc3ccc(Br)cc3)c2)c1` [Example 15] was 2 nM; that for `COc1ccc(NC(=O)c2cc(CNC(=O)C(C)(C)C)ccc2Cl)cc1C(=O)N[C@H]1CC[C@@H](C(F)(F)F)CC1` [Example 19] was 4 nM.

Usually IC50 stands for the concentration needed to halve the response being measured.
